Results reported in ChEMBL document CHEMBL1201862, “PubChem BioAssay data set” (2004).
Activity calls are given as the source filed them.

Experiments:
[1] = Luminescence Cell-Based Dose Retest to Confirm Inhibitors of Cancer Stem Cells. [Related pubchem assays (depositor defined):AID2717, AID2721]; format: functional; details: Homo sapiens
cells [2] = format: functional, cell-based
[3] = biological target: T1, Nuclear receptor subfamily 0 group B member 1 (Homo sapiens, UniProt P51843); format: functional, cell-based;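 further: HEK293T cells transfected with SF-1 and DAX-1 plus StAR promoter luciferase reporter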
T1 sequence (P51843 whole entry): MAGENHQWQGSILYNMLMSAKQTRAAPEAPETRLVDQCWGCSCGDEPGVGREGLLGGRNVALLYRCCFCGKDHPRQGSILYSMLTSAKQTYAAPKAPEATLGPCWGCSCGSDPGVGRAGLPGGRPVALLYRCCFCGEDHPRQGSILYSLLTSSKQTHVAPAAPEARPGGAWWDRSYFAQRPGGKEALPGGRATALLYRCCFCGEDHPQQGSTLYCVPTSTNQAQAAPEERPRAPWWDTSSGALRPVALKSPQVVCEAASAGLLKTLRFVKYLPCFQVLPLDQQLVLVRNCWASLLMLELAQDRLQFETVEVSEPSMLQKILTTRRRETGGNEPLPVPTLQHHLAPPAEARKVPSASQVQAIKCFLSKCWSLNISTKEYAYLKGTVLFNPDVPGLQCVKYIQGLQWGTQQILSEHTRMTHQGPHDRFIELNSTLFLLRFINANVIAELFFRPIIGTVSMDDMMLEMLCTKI

[4] = biological target: T2, Fructose-bisphosphate aldolase (Mycobacterium tuberculosis, UniProt P9WQA3); assay: Fluorescence-based biochemical high throughput dose response assay for inhibitors of the fructose-bisphosphate aldolase (FBA) of M. tuberculosis.; format: functional
T2 sequence (P9WQA3 whole entry): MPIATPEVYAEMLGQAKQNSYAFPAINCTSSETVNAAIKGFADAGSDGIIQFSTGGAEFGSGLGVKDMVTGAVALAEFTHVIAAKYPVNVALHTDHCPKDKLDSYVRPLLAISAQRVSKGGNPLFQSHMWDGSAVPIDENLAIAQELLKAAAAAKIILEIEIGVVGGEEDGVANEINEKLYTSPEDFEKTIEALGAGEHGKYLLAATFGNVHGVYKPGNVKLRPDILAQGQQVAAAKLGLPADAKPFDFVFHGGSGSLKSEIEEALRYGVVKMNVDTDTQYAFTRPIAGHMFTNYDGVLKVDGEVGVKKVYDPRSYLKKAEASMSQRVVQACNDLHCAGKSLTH

Vero = assay: viability loss in Vero cells – cell-based, plate reader, cherry-pick samples, cytotoxicity control, dose response (AID 687020); format: functional; details: Chlorocebus sabaeus
[5] = biological target: Nuclear receptor subfamily 5 group A member 2 (Homo sapiens, UniProt O00482); format: functional, cell-based;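 further: HEK293T cells transfected with LRH-1 and a StAR promoter luciferase reporter; potency for inhibitors that lower LRH-1 driven reporter light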
Nuclear receptor subfamily 5 group A member 2, sequence (O00482 whole entry): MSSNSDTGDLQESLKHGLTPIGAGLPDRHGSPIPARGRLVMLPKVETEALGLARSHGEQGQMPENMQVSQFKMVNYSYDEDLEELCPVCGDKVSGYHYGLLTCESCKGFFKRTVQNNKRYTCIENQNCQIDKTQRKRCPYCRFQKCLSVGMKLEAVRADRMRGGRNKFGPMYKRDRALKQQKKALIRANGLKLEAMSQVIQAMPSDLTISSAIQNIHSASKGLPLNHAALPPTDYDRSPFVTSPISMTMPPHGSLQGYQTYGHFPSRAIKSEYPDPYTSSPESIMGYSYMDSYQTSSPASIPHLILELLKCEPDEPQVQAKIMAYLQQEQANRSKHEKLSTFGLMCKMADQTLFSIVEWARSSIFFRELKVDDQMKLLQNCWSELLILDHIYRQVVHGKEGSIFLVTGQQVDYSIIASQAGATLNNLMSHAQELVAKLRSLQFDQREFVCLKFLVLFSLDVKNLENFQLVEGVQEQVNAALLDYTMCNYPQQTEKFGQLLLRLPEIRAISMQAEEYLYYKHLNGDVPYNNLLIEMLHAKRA

Steroidogenic factor 1 = Steroidogenic factor 1 (Homo sapiens, UniProt Q13285); assay: Counterscreen for inverse agonists of the liver receptor homolog-1 (LRH-1; NR5A2): Luminescence-based cell-based high throughput dose response assay to identify inverse agonists of the Steroidogenic Factor 1 Nuclear Receptor (SF1; NR5A1).; format: functional
Steroidogenic factor 1, sequence (Q13285 whole entry): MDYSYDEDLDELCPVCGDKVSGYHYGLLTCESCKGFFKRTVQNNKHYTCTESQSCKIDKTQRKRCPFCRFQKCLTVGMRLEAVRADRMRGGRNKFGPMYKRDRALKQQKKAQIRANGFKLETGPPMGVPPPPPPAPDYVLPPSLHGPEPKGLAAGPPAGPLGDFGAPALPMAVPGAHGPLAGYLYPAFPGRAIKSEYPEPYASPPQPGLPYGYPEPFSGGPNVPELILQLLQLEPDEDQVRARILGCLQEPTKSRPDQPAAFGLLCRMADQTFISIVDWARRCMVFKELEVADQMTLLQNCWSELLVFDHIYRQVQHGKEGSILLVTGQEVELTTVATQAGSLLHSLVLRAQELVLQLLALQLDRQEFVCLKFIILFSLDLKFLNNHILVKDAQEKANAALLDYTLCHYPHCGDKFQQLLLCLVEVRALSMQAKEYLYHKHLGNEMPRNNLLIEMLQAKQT

[6] = nonselective StAR promoter luciferase inhibitors – cell-based, luminescence, luciferase reporter, counter-screen for LRH-1 inverse agonist project, dose response (AID 651969); format: functional
[7] = viability of uninfected HEp-2 cells – cell-based, HTS, cytotoxicity control for RSV inhibitor project, dose response (AID 2410); format: functional; details: human respiratory syncytial virus
[8] = viability of PTEN-deleted HCT116 cells – cell-based, HCT116 PTEN knockout, dose response (AID 1047); format: functional;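 further: HCT116 colon tumor cells with PTEN knocked out; cells exposed to compound for 60 hours before readout; potency for loss of cell viability measured by luminescence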
[9] = biological target: T3, Sentrin-specific protease 1 (Homo sapiens, UniProt Q9P0U3); assay: Dose response confirmation of small molecule inhibitors of the catalytic domain of the SUMO protease, SENP1 in a FRET assay.; format: functional; details: read-out: IC50_Mean
T3 sequence (Q9P0U3 whole entry): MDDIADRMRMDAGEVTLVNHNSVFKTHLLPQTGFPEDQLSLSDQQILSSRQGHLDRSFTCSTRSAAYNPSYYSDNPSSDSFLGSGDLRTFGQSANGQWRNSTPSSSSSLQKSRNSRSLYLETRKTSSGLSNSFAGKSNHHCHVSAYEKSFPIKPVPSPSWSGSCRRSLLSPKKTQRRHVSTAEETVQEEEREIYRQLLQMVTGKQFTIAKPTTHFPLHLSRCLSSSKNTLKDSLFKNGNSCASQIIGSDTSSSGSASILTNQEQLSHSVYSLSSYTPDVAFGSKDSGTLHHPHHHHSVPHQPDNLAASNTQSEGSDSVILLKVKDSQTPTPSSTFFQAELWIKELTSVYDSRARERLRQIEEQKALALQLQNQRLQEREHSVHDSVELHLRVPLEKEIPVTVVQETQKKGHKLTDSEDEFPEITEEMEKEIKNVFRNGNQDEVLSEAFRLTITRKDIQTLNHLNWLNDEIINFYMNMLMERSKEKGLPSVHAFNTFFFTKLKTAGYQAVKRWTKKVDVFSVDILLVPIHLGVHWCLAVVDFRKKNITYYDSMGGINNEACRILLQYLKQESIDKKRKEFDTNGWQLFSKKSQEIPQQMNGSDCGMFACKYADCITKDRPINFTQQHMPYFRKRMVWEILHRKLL

Cytochrome P450 2C9 = Cytochrome P450 2C9 (Homo sapiens, UniProt P11712)
Cytochrome P450 2C9, sequence (P11712 whole entry): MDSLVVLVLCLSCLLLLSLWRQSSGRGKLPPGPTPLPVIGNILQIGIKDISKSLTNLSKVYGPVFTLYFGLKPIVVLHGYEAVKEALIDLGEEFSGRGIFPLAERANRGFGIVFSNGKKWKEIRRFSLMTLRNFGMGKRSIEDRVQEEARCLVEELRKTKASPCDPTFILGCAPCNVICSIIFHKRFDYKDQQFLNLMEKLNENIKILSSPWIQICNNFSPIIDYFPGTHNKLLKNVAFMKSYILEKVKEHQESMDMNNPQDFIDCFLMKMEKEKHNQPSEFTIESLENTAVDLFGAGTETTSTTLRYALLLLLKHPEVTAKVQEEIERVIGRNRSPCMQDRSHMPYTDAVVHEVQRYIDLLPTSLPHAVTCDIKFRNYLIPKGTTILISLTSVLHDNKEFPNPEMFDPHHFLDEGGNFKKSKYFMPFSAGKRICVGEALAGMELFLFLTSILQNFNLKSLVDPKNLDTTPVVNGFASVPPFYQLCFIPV

Galanin receptor type 3 = biological target: T4, Galanin receptor type 3 (Homo sapiens, UniProt O60755); assay: Fluorescence-based cell-based primary high throughput dose response assay to identify antagonists of the Galanin Receptor 3 (GalR3).; format: functional
T4 sequence (O60755 whole entry): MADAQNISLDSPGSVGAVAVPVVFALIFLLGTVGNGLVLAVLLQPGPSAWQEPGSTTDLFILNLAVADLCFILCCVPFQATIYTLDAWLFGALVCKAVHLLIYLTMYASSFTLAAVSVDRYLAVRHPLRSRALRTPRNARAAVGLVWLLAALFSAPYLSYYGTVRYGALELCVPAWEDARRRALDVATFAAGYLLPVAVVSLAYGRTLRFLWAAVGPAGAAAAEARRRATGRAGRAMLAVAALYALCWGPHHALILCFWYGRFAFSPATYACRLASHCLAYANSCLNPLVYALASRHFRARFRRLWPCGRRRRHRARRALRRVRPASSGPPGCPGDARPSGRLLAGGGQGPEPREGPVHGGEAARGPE

cells [10] = format: functional, cell-based; details: HEK-CNG
[11] = reduction of Shn3 3'UTR-driven luciferase in osteoblasts – cell-based, Clone20 osteoblasts, firefly luciferase, cherry-picked, dose response (AID 624132); format: functional;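 further: firefly luciferase luminescence from reporter carrying the Shn3 3'UTR in osteoblasts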
[12] = loss of viability in HepG2 cells – cell-based, CellTiter-Glo, cherry-picked, cytotoxicity control for Shn3 inhibitor project, dose response (AID 624134); format: functional
[13] = non-specific 3'UTR reporter inhibition in Clone20-Shn3RL – cell-based, Renilla luciferase, cherry-picked, counter-screen for Shn3 inhibitor project, dose response (AID 624133); format: functional
[14] = biological target: Photoreceptor-specific nuclear receptor (Homo sapiens, UniProt Q9Y5X4); format: functional, cell-based;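 further: CHO-S cells with Gal4-NCOR and VP16-NR2E3 two-hybrid luciferase reporter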
Photoreceptor-specific nuclear receptor, sequence (Q9Y5X4 whole entry, the tested form may be a part): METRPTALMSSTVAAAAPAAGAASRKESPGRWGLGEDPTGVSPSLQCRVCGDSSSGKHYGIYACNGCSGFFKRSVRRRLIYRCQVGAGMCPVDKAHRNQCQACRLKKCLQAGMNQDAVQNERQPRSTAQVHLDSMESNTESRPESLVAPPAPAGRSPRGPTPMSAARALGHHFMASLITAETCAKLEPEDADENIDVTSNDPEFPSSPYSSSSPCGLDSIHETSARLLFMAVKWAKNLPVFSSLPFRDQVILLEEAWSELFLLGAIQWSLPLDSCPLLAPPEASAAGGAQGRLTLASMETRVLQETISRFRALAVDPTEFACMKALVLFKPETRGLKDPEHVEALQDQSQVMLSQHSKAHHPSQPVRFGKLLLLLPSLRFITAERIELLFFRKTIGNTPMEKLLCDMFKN

[15] = biological target: T5, Ubiquitin-conjugating enzyme E2 N (Homo sapiens, UniProt P61088); format: functional;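 further: Dose-response confirmation in a TR-FRET assay detecting UBC13-driven polyubiquitin chain formation, inhibition measured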
T5 sequence (P61088 whole entry): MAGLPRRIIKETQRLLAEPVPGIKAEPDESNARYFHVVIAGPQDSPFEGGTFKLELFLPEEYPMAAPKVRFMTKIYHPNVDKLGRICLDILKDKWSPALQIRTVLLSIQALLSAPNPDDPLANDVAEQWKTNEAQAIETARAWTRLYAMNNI

CAAX prenyl protease 2 = biological target: T6, CAAX prenyl protease 2 (Saccharomyces cerevisiae S288c, UniProt Q03530); format: biochemical
T6 sequence (Q03530 whole entry): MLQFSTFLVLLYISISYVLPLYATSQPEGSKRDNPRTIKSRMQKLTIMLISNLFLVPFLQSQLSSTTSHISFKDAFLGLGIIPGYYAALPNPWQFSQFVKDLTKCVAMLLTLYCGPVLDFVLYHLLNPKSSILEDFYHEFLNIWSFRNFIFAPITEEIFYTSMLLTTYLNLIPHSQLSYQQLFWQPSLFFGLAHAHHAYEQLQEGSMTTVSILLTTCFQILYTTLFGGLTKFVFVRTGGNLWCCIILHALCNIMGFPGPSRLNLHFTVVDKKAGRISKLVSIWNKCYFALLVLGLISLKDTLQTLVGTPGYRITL

[16] = biological target: T7, High affinity choline transporter 1 (Homo sapiens, UniProt Q9GZV3); assay: human choline transporter blockers, potency – cell-based, 5-point CRC, membrane potential dye, dose response (AID 504840); format: functional
T7 sequence (Q9GZV3 whole entry): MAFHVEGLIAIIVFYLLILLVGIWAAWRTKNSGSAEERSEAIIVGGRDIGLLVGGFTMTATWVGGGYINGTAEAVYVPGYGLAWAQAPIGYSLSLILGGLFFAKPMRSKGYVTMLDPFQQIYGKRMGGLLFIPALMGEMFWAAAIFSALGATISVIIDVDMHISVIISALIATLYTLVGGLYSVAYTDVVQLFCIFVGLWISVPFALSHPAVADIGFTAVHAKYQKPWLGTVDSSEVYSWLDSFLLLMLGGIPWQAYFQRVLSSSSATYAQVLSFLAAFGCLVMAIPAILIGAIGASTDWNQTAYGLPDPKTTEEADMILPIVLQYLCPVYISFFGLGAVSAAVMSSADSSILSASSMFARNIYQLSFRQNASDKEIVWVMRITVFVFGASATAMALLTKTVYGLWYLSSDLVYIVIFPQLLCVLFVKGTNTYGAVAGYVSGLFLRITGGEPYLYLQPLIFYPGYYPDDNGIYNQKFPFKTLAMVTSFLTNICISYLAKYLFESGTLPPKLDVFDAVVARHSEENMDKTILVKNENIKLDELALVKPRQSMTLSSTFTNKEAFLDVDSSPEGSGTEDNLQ

[17] = biological target: T7, High affinity choline transporter 1; assay: human choline transporter blockers, potency – cell-based, 10-point CRC, membrane potential dye, dose response (AID 588401); format: functional;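 further: membrane potential dye fluorescence of choline-evoked depolarization via CHT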
P388/ADR = assay: cells; format: functional; details: Mus musculus
SN12K1 = assay: cells; format: functional; details: Homo sapiens
P388 = assay: cells; format: functional; details: Mus musculus

With `CCCCCCC[C@@H](C/C=C/CCC(=O)N(C)C/C(=C/Cl)C/C(=C\C(=O)N1CC(OC)=CC1=O)OC)OC` the AC50 [1] was 4.12 µM (active), the IC50 (cells [2]) was > 67.5 µM (inactive) and the IC50 [3] was > 0.278 µM (active).

In the case of `CCNC(=O)NC(=O)COC(=O)c1ccccc1SCC(=O)NC(=O)NCC`, the IC50 [4] is reported as 0.969 µM (active).

For `COc1cccc(NC(=O)[C@H](NC(=O)[C@@H]2Cc3ccccc3CN2)c2ccccc2)c1`, the IC50 (cells [2]) was > 67.5 µM (inactive) and the IC50 [3] was > 67.5 µM (inactive).

With `O=C1CCN(CCc2ccccc2)CCN1[C@H](COc1ccccc1)c1ccccc1` the AC50 (Vero) was 21.8 µM (active).

In the case of `CCOc1ccc(NC(=O)COC(=O)COc2cccc3c2OC(C)(C)C3)cc1`, the IC50 [5] is reported as 15.5 µM (inactive), the IC50 (Steroidogenic factor 1) is reported as 2.55 µM (active) and the IC50 [6] is reported as 35.9 µM (inactive).

For `C=CCNc1nc(Nc2ccc(-c3nc4ccccc4o3)cc2)nc(N2CCOCC2)n1`, the CC50 [7] was 27.3 µM (active), the EC50 [8] was 43.5 µM (active) and the IC50 [4] was 0.213 µM (active).

With `CC(C)(Oc1ccc(Cl)cc1)C(=O)OCC(=O)NCCc1ccccc1` the IC50 [5] was 5.98 µM (active), the IC50 (Steroidogenic factor 1) was 6.16 µM (active) and the IC50 [6] was 35.9 µM (inactive).

In the case of `O=C1NC(=S)N/C1=C/c1cccc([N+](=O)[O-])c1O`, the IC50 [9] is reported as 37.4 µM (inactive) and the AC50 (Cytochrome P450 2C9) is reported as 12.6 µM (inconclusive).

For `CC(NCC#Cc1ccccc1)C(O)c1ccccc1` (centres undefined), the IC50 (Galanin receptor type 3) was > 29.9 µM (inactive) and the EC50 (cells [10]) was > 29.9 µM (inactive).

With `CCN(CC)S(=O)(=O)c1cc(NC(=O)CNc2cccc(S(=O)(=O)N3CCOCC3)c2)ccc1C` the AC50 [11] was 2.97 µM (active), the AC50 [12] was 1.89 µM (active) and the AC50 [13] was 2.17 µM (active). The IC50 (Galanin receptor type 3) was 0.449 µM (active) and the EC50 (cells [10]) was > 29.9 µM (inactive).

With `COc1ccc(S(=O)(=O)N2CCCCC2)cc1N=C(S)Nc1ccccc1` the IC50 [14] was 1.22 µM (active).

In the case of `NC(=O)CCCn1c(C(=O)c2cc(Cl)c(N)c(Cl)c2)c2ccc(C(F)(F)F)cc2[n+]1[O-]`, the IC50 [15] is reported as > 20 µM (inactive), the AC50 (CAAX prenyl protease 2) is reported as 3.5 µM (active) and the IC50 [16] is reported as 4.47 µM (active). The IC50 [17] was 4.22 µM (active).

With `CCC(C)NC(=O)c1ccc2c(c1)N(Cc1ccccc1)C(=O)CS2` (centres undefined) the IC50 [5] was 16.3 µM (inactive), the IC50 (Steroidogenic factor 1) was 5.68 µM (active) and the IC50 [6] was 35.9 µM (inactive).

With `CCNc1cc(Cl)nc(SC)n1` the IC50 [16] was 4.88 µM (active) and the IC50 [17] was 1.79 µM (active).

With `CCOC(=O)CC[C@H](NC(=O)Cn1cnc2c(OCc3ccccc3)ncnc21)C(=O)OCC` the AC50 (Vero) was 36 µM (active).

In the case of `COc1ccc(NC(=O)c2sc(=O)n(Cc3cccc(C(F)(F)F)c3)c2C)cc1OC`, the IC50 [14] is reported as 13.9 µM (inactive).

In the case of `C/C=C/C1=CC(=O)C(O)C1O` (centres undefined), the GI50 (P388/ADR) is reported as 17.9 µM (inactive), the GI50 (SN12K1) is reported as 28.1 µM (inactive) and the GI50 (P388) is reported as 15 µM (inactive).

In the case of `O=C1c2ccccc2/C(=C\c2ccc(Br)nc2)N1c1ccccc1`, the AC50 (Vero) is reported as 38.8 µM (active).

For `O=c1oc2ccccc2cc1-c1ccccc1`, the IC50 [4] was 2.78 µM (active).

With `CNC(=O)[C@H]1O[C@@H](n2cnc3c(NCc4cccc(I)c4)ncnc32)[C@H](O)[C@@H]1O` [IB-MECA] the IC50 [16] was 2.37 µM (active) and the IC50 [17] was 1.83 µM (active).
